Test [1] deals with serum IgG1, IgG2a, IgE and cytokines. Briefly: Serum immunoglobulin and cytokine levels in acute GVHD model. Format: in vivo, mouse. The conditions noted are these: serum level. The protocol:
Efficacy of IL-27 antagonists was assayed in a mouse model of acute graft-vs-host disease (Durie et al., J. Clin. Invest. 94:1333-1338, 1994). Parental mice (C57BL/6; n=12) were euthanized, and their spleens were collected. The pooled spleens were smashed using two glass slides to dissociate splenic cells. Lysis buffer was added to the splenocyte suspension to remove red blood cells. The cells were washed in RPMI 1640 (10% FBS) medium and resuspended in an appropriate amount of PBS to make a cell concentration of 300 million cells/ml. Protein treatments were administered by intraperitoneal injection every other day beginning on day-1 and continuing until day 15. Dexamethasone (DEX) was administered by injection daily on days 0 through 6. On day 0, 75 million donor splenic lymphocytes from B6 mice (250 .micro.l per injection) were injected intravenously into recipient mice (C57BL/6×DBA/2 F1 (BDF1); n=10 per group) mice. Mice were monitored 3 times a week for changes in body weight and any signs of moribundity. Mice that lost >20% of their initial body weight were euthanized. Otherwise, mice were sacrificed 18 days after the cell transfer. Spleens were collected, and a CTL-specific lysis assay using P815 cells was performed as a quantitative measurement of acute GVHD. Furthermore, spleens were stained for T- and B-cell markers, including MHC class I markers (H2^b and H2^d) to look at donor/recipient cell ratio (acute GVHD spleen cells are mostly donor cells). Sera were collected to measure serum level of IgG1, IgG2a, and IgE by ELISA, and cytokine and chemokine levels using a commercially available kit (Luminex Corporation, Austin, Tex.).

Test [2] addresses T1, muIL-27 (Mus musculus, UniProt O35228+Q8K3I6).
T1 sequence (O35228 19-228): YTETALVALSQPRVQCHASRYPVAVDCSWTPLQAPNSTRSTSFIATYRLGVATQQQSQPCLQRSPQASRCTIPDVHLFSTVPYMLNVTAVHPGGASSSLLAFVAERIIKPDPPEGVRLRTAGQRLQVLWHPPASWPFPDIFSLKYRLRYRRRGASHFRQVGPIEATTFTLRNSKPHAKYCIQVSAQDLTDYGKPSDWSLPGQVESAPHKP
T1 sequence (Q8K3I6 29-234): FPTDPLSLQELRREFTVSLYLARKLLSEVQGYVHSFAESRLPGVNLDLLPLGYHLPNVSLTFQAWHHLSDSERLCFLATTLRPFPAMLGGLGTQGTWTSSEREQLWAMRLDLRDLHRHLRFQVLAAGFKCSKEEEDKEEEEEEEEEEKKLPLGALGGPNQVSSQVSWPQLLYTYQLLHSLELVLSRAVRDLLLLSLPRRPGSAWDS
Briefly: Phospho-STAT3 neutralization assay, mouse spleens, muIL-27. The test is classed as cell-based. The conditions noted are these: ligand muIL-27 at EC90. The source says:
(§1) Whole mouse spleens were harvested from C57 B1/6 mice and washed two times with 1×PBS before being plated out at 2×10^5 cells/well in assay media (RPMI 1640 plus 10% fetal bovine serum) in 96-well, round-bottom tissue culture plates. Total human PBMC (peripheral blood mononuclear cells) were thawed from a frozen vial collected from a leukapherisis donation and washed two times with 1×PBS before being plated out at 10^6 cells/well in assay media in 96-well, round-bottom tissue culture plates. […] Following pre-incubation, treatments were added to the plates containing the cells and incubated together at 37° C. for 15 minutes.
(§2) Following incubation, cells were washed with ice-cold wash buffer (BIO-PLEX Cell Lysis Kit, BIO-RAD Laboratories, Hercules, Calif.) and put on ice to stop the reaction according to manufacturer's instructions. […]
(§3) Capture beads (BIO-PLEX Phospho-Stat3 Assay, BIO-RAD Laboratories) were combined with 50 μL of 1:1 diluted lysates and added to a 96-well filter plate according to manufacture's instructions (BIO-PLEX Phosphoprotein Detection Kit, BIO-RAD Laboratories). […] After the final wash, beads were resuspended in 125 μL/well of bead suspension buffer, shaken for 30 seconds, and read on an array reader (BIO-PLEX, BIO-RAD Laboratories) according to the manufacture's instructions. Data were analyzed using analytical softward (BIO-PLEX MANAGER 3.0, BIO-RAD Laboratories). […]

The next test has as its target T2, huIL-27 (Homo sapiens, UniProt Q14213+Q8NEV9).
T2 sequence (Q14213 21-229): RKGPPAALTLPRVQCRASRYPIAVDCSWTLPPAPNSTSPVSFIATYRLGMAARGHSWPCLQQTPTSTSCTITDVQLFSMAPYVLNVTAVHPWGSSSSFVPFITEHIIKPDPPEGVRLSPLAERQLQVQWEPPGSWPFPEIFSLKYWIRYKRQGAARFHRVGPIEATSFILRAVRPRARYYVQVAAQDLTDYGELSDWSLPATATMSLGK
T2 sequence (Q8NEV9 29-243): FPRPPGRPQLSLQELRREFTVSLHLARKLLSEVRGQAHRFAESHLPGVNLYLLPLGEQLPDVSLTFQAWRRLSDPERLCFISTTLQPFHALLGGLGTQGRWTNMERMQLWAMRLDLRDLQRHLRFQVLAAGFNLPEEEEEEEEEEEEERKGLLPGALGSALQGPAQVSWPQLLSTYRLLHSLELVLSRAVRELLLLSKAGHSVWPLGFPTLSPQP
Kind of test: Phospho-STAT3 neutralization assay, mouse spleens, huIL-27. Format: cell-based. The conditions noted are these: Mouse Spleens; ligand huIL-27 at EC90.
Text: as §1, §2, §3

The target in test [3] is T1, muIL-27. Briefly: Phospho-STAT3 neutralization assay, total human PBMCs, muIL-27. Format: cell-based. The conditions noted are these: ligand muIL-27 at EC90.
Text: as §1, §2, §3

pIC50: −log10 of the molar value.

For “human IL-27RA-Fc5: human IL27RA extracellular domain (amino acids 1 to 512 of SEQ ID NO:5) fused to Fc5, effector minus human gamma1 Fc; SEQ ID NO:3”, in test [1], the IL-2 result is recorded as “↑↑↑”, the IL-5 entry was “↑↑”, the IL-6 result is recorded as “↓↓↓” and the IgE entry was “↑”. Besides, in test [1], the IgG1 result was “↑↑” and the IgG2A result is “↑↑”. Further, the pIC50 with muIL-27 [2] is 9.85. Besides, in the test with huIL-27, the pIC50 is 9.49. In addition, the pIC50 with muIL-27 [3] is 8.53.

By pIC50 is commonly meant the IC50 on a negative log10 scale, so that one unit is a factor of ten.

These data come from patent publication US20100092465A1, “TREATMENT OF GRAFT-VERSUS-HOST DISEASE” (priority 2006, published 2010).
